Experimental data from US8883801B2, “Substituted pyrazolo[1,5-a]pyrimidines as mTOR inhibitors” (Merck Sharp & Dohme Corp., priority 2010, dated 2014).

Key:
[1] = test system: mTORC1 activity: phosphorylated 4E-BP1 Thr37/46 (p4E-BP1 Thr37/46) in PC3 cells; test: mTOR target engagement assay, immunofluorescent cell-based, mTORC1 readout; conditions: Homo sapiens, PC-3, 1.5 h, rated class, 90 min treatment, read-out: P4EBP1 IC50
Method: The target engagement of mTOR kinase inhibitors was evaluated using an immunofluorescent cell-based assay. In this assay, inhibition of mTORC1 activity was measured by the reduction in the level of phosphorylated 4E-BP1Thr37/46 (p4E-BP1 Thr37/46), and inhibition of mTORC2 activity was measured by the reduction of phosphorylated AKTSer473 (pAKT S473).
PC3 cells (prostate tumor cell-line that contains a mutation in the tumor suppressor PTEN, that promotes the phosphorylation and activation of AKT and 4E-BP1) were used in the immunofluorescence assay. PC3 cells were seeded on 384 well plates (black clear bottom, Matrix #4332) overnight. PC3 cells were then treated with 40 μl of the serially diluted test compounds (in 5% fetal bovine serum, F12 medium containing 0.25% DMSO) for ninety minutes at 37° C. The test compound solution was removed, and the plates were washed gently two times with 25 μl phosphate buffered saline (PBS). The cells were fixed by adding 25 μl of Prefer reagent (from Anatech LTD, Cat#414, a glyoxal fixative for fixing proteins within a cell) for sixty minutes followed by three washes with PBS. 5% Goat serum in PBS/0.3% Triton was used to block non-specific binding (60 minutes).
The primary antibodies targeting pAKT S473 and p4E-BP1 Thr37/46 were diluted into PBS/0.3% Triton and incubated with the cells overnight at 4° C. The antibodies targeting pAKTS473 (Cat#4085, Cell signaling) and p4E-BP1 Thr37/46 (Cat#2855, Cell signaling) were used at a 1:100 dilution. Plates were washed three times with PBS/0.1% Tween 20 before adding the secondary antibody at a 1:200 dilution. (goat anti-rabbit containing a fluorescent label, Alexa Fluor 488, Cat#A11008, Invitrogen) in PBS/0.3% Triton for 60 minutes.
Finally, the plates were washed three times with PBS/0.1% Tween 20 and the fluorescent intensity was read using an Analyst HT from Molecular Devices. The fluorescent intensity values from the serially diluted compound treatment group were analyzed using the Xlfit 4 program ([…]) (Formula 205: Y=Bottom+(Top-Bottom)/(1+(IC50/X)^Hillslope) to generate the IC50 value. Where Top is the maximum signal without Compound (+DMSO only) and Bottom represents maximum inhibition. Y is the fluorescence at some compound concentration. The control used to determine the fluorescent intensities for 100% pAKT S473 or 100% phosphorylated p4E-BP1 Thr37/46 were measured from untreated wells that contained only DMSO, instead of test compound.

human mTOR enzyme = human mTOR enzyme (Homo sapiens, UniProt P42345); test: HTRF mTOR enzyme (kinase) assay; assay type: biochemical; conditions: rated class; 5 μM ATP, 0.2 μM GST-S6K; read-out: hMTOR IC50
Sequence of human mTOR enzyme (P42345 1360-2549 limits assumed): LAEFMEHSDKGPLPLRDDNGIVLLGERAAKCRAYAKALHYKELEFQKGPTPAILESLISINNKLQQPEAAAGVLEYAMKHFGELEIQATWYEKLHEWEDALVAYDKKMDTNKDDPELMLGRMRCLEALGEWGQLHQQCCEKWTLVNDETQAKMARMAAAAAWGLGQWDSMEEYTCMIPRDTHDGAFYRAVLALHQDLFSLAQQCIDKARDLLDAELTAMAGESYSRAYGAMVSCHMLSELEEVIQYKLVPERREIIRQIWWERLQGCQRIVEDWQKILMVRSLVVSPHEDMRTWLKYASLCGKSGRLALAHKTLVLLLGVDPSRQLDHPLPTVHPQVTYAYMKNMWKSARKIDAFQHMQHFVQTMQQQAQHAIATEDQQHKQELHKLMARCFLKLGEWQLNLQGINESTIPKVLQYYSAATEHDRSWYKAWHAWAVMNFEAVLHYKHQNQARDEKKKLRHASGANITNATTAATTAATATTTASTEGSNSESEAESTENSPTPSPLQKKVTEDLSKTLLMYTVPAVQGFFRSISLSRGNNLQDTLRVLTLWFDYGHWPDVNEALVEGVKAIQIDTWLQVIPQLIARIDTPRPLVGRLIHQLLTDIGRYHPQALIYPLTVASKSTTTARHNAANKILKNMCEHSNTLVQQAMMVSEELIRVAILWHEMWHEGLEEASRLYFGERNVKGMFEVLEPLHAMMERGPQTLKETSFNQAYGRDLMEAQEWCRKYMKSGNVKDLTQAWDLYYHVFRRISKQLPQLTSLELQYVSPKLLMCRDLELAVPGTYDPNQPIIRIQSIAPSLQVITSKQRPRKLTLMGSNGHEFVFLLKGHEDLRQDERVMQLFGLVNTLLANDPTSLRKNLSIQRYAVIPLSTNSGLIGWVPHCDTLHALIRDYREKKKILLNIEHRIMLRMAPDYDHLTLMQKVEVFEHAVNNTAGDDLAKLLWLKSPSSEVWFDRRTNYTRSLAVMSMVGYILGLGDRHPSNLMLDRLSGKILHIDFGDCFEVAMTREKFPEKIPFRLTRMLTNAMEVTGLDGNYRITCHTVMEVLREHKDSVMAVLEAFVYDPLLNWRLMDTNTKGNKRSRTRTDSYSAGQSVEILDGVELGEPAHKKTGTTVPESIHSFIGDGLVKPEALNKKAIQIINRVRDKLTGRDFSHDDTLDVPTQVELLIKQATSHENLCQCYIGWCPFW

[2] = test system: mTORC2 activity: phosphorylated AKT Ser473 (pAKT S473) in PC3 cells; test: mTOR target engagement assay, immunofluorescent cell-based, mTORC2 readout; conditions: Homo sapiens, PC-3, 1.5 h, rated class, 90 min treatment
Procedure, shortened: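 Read-out is immunofluorescence intensity, normalized to DMSO-only wells and fitted to a sigmoidal Hill equation for IC50. The mTORC1 arm probes phospho-4E-BP1 Thr37/46 and the mTORC2 arm phospho-AKT Ser473.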

Row | IC50 [1] | IC50 (human mTOR enzyme) | IC50 [2] | SMILES
1 | 1 to 100 nM | 1 to 100 nM | 1 to 100 nM | COCCO[C@]1(C(=O)NOCCO)CC[C@@H](c2nc3c(-c4cnn(-c5ccccc5)c4)cnn3c(N)c2S(C)(=O)=O)CC1 [Compound 100]
2 | 100 to 1000 nM | 1 to 100 nM | 100 to 1000 nM | COCCO[C@]1(C(=O)NO)CC[C@@H](c2nc3c(-c4ccc(-c5ccccc5)nc4)cnn3c(N)c2C(C)=O)CC1 [Compound 102, (1R,4R)-4-(6-acetyl-7-amino-3-(6-phenylpyridin-3-yl)pyrazolo[1,5-a]pyrimidin-5-yl)-N-hydroxy-1-(2-methoxyethoxy)-cyclohexane-carboxamide]
3 | 100 to 1000 nM | 1 to 100 nM | 100 to 1000 nM | COCCO[C@]1(C(=O)NOC)CC[C@@H](c2nc3c(-c4ccc(-c5ccccc5)nc4)cnn3c(N)c2C(C)=O)CC1 [Compound 103, (1R,4R)-4-(6-acetyl-7-amino-3-(6-phenylpyridin-3-yl)pyrazolo[1,5-a]pyrimidin-5-yl)-N-methoxy-1-(2-methoxyethoxy)-cyclohexane-carboxamide]
4 | 1 to 100 nM | 1 to 100 nM | 1 to 100 nM | COCCO[C@]1(C(=O)NO)CC[C@@H](c2nc3c(-c4ccc(-c5ccccc5)nc4)cnn3c(N)c2S(C)(=O)=O)CC1 [Compound 104, (1R,4R)-4-(7-amino-6-(methylsulfonyl)-3-(6-phenylpyridin-3-yl)pyrazolo[1,5-a]pyrimidin-5-yl)-N-hydroxy-1-(2-methoxyethoxy)-cyclohexane-carboxamide]

The remaining lines, values behind:

Row | SMILES | IC50 [1] | IC50 (human mTOR enzyme) | IC50 [2]
5 | COCCO[C@]1(C(=O)NCCO)CC[C@@H](c2nc3c(-c4cnn(-c5ccccc5)c4)cnn3c(N)c2S(C)(=O)=O)CC1 [Compound 92, (1R,4R)-4-(7-amino-6-(methylsulfonyl)-3-(1-phenyl-1H-pyrazol-4-yl)pyrazolo[1,5-a]pyrimidin-5-yl)-N-(2-hydroxyethyl)-1-(2-methoxyethoxy)-cyclohexane-carboxamide] | 100 to 1000 nM | 1 to 100 nM | 1 to 100 nM
6 | COCCNC(=O)[C@]1(OCCOC)CC[C@H](c2nc3c(-c4cnn(-c5ccccc5)c4)cnn3c(N)c2S(C)(=O)=O)CC1 [Compound 93, (1R,4R)-4-(7-amino-6-(methylsulfonyl)-3-(1-phenyl-1H-pyrazol-4-yl)pyrazolo[1,5-a]pyrimidin-5-yl)-1-(2-methoxyethoxy)-N-(2-methoxyethyl)-cyclohexane-carboxamide] | 1000 to 2000 nM | 1 to 100 nM | 100 to 1000 nM
7 | COCCO[C@]1(C(=O)n2ccc(=O)[nH]2)CC[C@@H](c2nc3c(-c4cnn(-c5ccccc5)c4)cnn3c(N)c2S(C)(=O)=O)CC1 [Compound 94, 1-((1R,4R)-4-(7-amino-6-(methylsulfonyl)-3-(1-phenyl-1H-pyrazol-4-yl)pyrazolo[1,5-a]pyrimidin-5-yl)-1-(2-methoxyethoxy)-cyclohexanecarbonyl)-1H-pyrazol-3(2H)-one] | 100 to 1000 nM | 1 to 100 nM | 1 to 100 nM
8 | COCCO[C@]1(C(=O)N2CCC(=O)N2)CC[C@@H](c2nc3c(-c4cnn(-c5ccccc5)c4)cnn3c(N)c2S(C)(=O)=O)CC1 [Compound 95, 1-((1R,4R)-4-(7-amino-6-(methylsulfonyl)-3-(1-phenyl-1H-pyrazol-4-yl)pyrazolo[1,5-a]pyrimidin-5-yl)-1-(2-methoxyethoxy)cyclohexanecarbonyl)-pyrazolidin-3-one] | 100 to 1000 nM | 1 to 100 nM | 100 to 1000 nM
9 | COCCO[C@]1(C(=O)NN2CCOCC2)CC[C@@H](c2nc3c(-c4cnn(-c5ccccc5)c4)cnn3c(N)c2S(C)(=O)=O)CC1 [Compound 96, (1R,4R)-4-(7-amino-6-(methylsulfonyl)-3-(1-phenyl-1H-pyrazol-4-yl)pyrazolo[1,5-a]pyrimidin-5-yl)-1-(2-methoxyethoxy)-N-morpholinocyclohexane-carboxamide] | 1000 to 2000 nM | 1 to 100 nM | 100 to 1000 nM
